Tested on: HCC1569 cells
Assay: Inhibition of tumor cell proliferation (CTG, HCC1569)
Format: cell-based
Settings: Homo sapiens, 168 h, 7 days incubation, CTG readout, read-out: IC50 of compounds for inhibition of HCC1569 cell growth
Description: Experimental principle: The compound was incubated with tumor cells for 7 days, and ATP in viable cells was quantified using the CTG kit from Promega to evaluate the effect of the compound on tumor cell proliferation.
Experimental method: The cultured cells were resuspended after being rinsed with PBS (for adherent cells) and digested with 0.25% Trypsin-EDTA, followed by cell counting to determine cell density and viability. 3000 HCC1569 cells/well were diluted with RPMI Medium 1640 containing 10% FBS, added to a 96-well plate (90 μL/well), and cultured in an incubator at 37° C. with 5% CO2 for 24 h. The test compound was diluted to different concentrations in dimethyl sulfoxide (DMSO) and added to a 96-well plate. Thus, the final concentration of the compound in the reaction system started at 25 μM and was subjected to a 4-fold serial dilution, with the final DMSO concentration maintained at 0.25%. The compound and cells were further incubated at 37° C. with 5% CO2 for 7 days. 50 μL/well of CTG was then added to measure the inhibitory effect of the compound on tumor cell growth, and the inhibition rate and half-maximal inhibitory concentration (IC50) were calculated.
The % compound inhibition was calculated and fitted using XLfit software to obtain the IC50 of the compound.
Blank wells and DMSO wells were set up. The blank well contained 100 μL of RPMI Medium 1640 with 10% FBS, where the inhibition rate of the compound on tumor cell growth was considered 100%. The DMSO well contained 0.25% DMSO added to the cell well, where the inhibition rate of the compound on tumor cell growth was considered 0%.

| Structure (SMILES) | IC50 |
| --- | --- |
| Cc1nc2c3c(c(N)n(-c4c(C)ccc(O)c4C)c3n1)C(=O)NCc1ccccc1-2 [Compound 3, 2-amino-1-(3-hydroxy-2,6-dimethylphenyl)-11-methyl-4,5-dihydro-1,4,10,12-tetraazabenzo[4,5]cyclooctatetraeno[1,2,3-cd]inden-3(1H)-one] | 293 nM |
| Cc1nc2c3c(c(N)n(-c4c(C)ccc(O)c4C)c3n1)C(=O)NCc1ncccc1-2 [Compound 4, 2-amino-1-(3-hydroxy-2,6-dimethylphenyl)-11-methyl-4,5-dihydro-1,4,6,10,12-pentaazabenzo[4,5]cyclooctatetraeno[1,2,3-cd]inden-3(1H)-one] | 240 nM |
| Cc1nc2c3c(c(N)n(-c4c(C)ccc(O)c4C)c3n1)C(=O)NCc1cnccc1-2 [Compound 5, 2-amino-1-(3-hydroxy-2,6-dimethylphenyl)-11-methyl-4,5-dihydro-1,4,7,10,12-pentaazabenzo[4,5]cyclooctatetraeno[1,2,3-cd]inden-3(1H)-one] | 539 nM |
| Cc1nc2c3c(c(N)n(-c4c(C)ccc(O)c4C)c3n1)C(=O)NCc1nn(C)cc1-2 [Compound 8, 2-amino-1-(3-hydroxy-2,6-dimethylphenyl)-7,10-dimethyl-1,4,5,7-tetrahydro-3H-1,4,6,7,9,11-hexaazacyclopenta[4,5]cyclooctatetraeno[1,2,3-cd]inden-3-one] | 768 nM |
| Cc1ccc2c(n1)CNC(=O)c1c(N)n(-c3c(C)ccc(O)c3C)c3nc(C)nc-2c13 [Compound 9, 2-amino-1-(3-hydroxy-2,6-dimethylphenyl)-7,11-dimethyl-4,5-dihydro-1,4,6,10,12-pentaazabenzo[4,5]cyclooctatetraeno[1,2,3-cd]inden-3(1H)-one] | 210 nM |
| COc1cccc2c1CNC(=O)c1c(N)n(-c3c(C)ccc(O)c3C)c3nc(C)nc-2c13 [Compound 11, 2-amino-1-(3-hydroxy-2,6-dimethylphenyl)-6-methoxy-11-methyl-4,5-dihydro-1,4,10,12-tetraazabenzo[4,5]cyclooctatetraeno[1,2,3-cd]inden-3(1H)-one] | 59.2 nM |
| Cc1nc2c3c(c(N)n(-c4c(C)ccc(O)c4C)c3n1)C(=O)Nc1c-2cnn1C [Compound 12, 5-amino-4-(3-hydroxy-2,6-dimethylphenyl)-2,8-dimethyl-7,8-dihydro-1,3,4,7,8,9-hexaazabenzo[cd]cyclopenta[f]azulen-6(4H)-one] | 9.2 nM |
| Cc1nc2c3c(c(N)n(-c4c(C)ccc(O)c4C)c3n1)C(=O)Nc1nn(C)cc1-2 [Compound 13, 2-amino-1-(3-hydroxy-2,6-dimethylphenyl)-6,9-dimethyl-4,6-dihydro-1,4,5,6,8,10-hexaazabenzo[cd]cyclopenta[f]azulen-3(1H)-one] | 27.3 nM |
| Cc1nc2c3c(c(N)n(-c4c(C)ccc(O)c4C)c3n1)C(=O)Nc1nn(CC(F)(F)F)cc1-2 [Compound 14, 2-amino-1-(3-hydroxy-2,6-dimethylphenyl)-9-methyl-6-(2,2,2-trifluoroethyl)-4,6-dihydro-1,4,5,6,8,10-hexaazabenzo[cd]cyclopenta[f]azulen-3(1H)-one] | 254 nM |
| Cc1nc2c3c(c(N)n(-c4c(C)ccc(O)c4C)c3n1)C(=O)Nc1c(F)cncc1-2 [Compound 16, 5-amino-8-fluoro-4-(3-hydroxy-2,6-dimethylphenyl)-2-methyl-4,7-dihydro-6H-1,3,4,7,10-pentaazadibenzo[cd,f]azulen-6-one] | 264 nM |
| Cc1nc2c3c(c(N)n(-c4c(C)ccc(O)c4C)c3n1)C(=O)Nc1ncccc1-2 [Compound 17, 5-amino-4-(3-hydroxy-2,6-dimethylphenyl)-2-methyl-4,7-dihydro-6H-1,3,4,7,8-pentaazadibenzo[cd,f]azulen-6-one] | 24.6 nM |
| Cc1nc2c3c(c(N)n(-c4c(C)ccc(O)c4C)c3n1)C(=O)Nc1cnccc1-2 [Compound 18, 5-amino-4-(3-hydroxy-2,6-dimethylphenyl)-2-methyl-4,7-dihydro-6H-1,3,4,7,9-pentaazadibenzo[cd,f]azulen-6-one] | 11 nM |
| Cc1nc2c3c(c(N)n(-c4c(C)ccc(O)c4C)c3n1)C(=O)Nc1ccncc1-2 [Compound 19, 5-amino-4-(3-hydroxy-2,6-dimethylphenyl)-2-methyl-4,7-dihydro-6H-1,3,4,7,10-pentaazadibenzo[cd,f]azulen-6-one] | 50 nM |
| Cc1nc2c3c(c(N)n(-c4c(C)ccc(O)c4C)c3n1)C(=O)Nc1cccnc1-2 [Compound 20, 5-amino-4-(3-hydroxy-2,6-dimethylphenyl)-2-methyl-4,7-dihydro-6H-1,3,4,7,11-pentaazadibenzo[cd,f]azulen-6-one] | 25.5 nM |
| COc1nccc2c1CNC(=O)c1c(N)n(-c3c(C)ccc(O)c3C)c3nc(C)nc-2c13 [Compound 23, 2-amino-1-(3-hydroxy-2,6-dimethylphenyl)-6-methoxy-11-methyl-4,5-dihydro-1,4,7,10,12-pentaazabenzo[4,5]cyclooctatetraeno[1,2,3-cd]inden-3(1H)-one] | 24.9 nM |
| Cc1nc2c3c(c(N)n(-c4c(C)ccc(O)c4C)c3n1)C(=O)NCc1c(C#N)cccc1-2 [Compound 27, 2-amino-1-(3-hydroxy-2,6-dimethylphenyl)-11-methyl-3-oxo-1,3,4,5-tetrahydro-1,4,10,12-tetraazabenzo[4,5]cyclooctatetraeno[1,2,3-cd]indene-6-carbonitrile] | 131 nM |
| Cc1nc2c3c(c(N)n(-c4c(C)ccc(O)c4C)c3n1)C(=O)NCc1nc(C3CC3)ccc1-2 [Compound 28, 2-amino-7-cyclopropyl-1-(3-hydroxy-2,6-dimethylphenyl)-11-methyl-4,5-dihydro-1,4,6,10,12-pentaazabenzo[4,5]cyclooctatetraeno[1,2,3-cd]inden-3(1H)-one] | 70 nM |
| Cc1nc2c3c(c(N)n(-c4c(C)ccc(O)c4C)c3n1)C(=O)NCc1nc(C(F)(F)F)ccc1-2 [Compound 29, 2-amino-1-(3-hydroxy-2,6-dimethylphenyl)-11-methyl-7-(trifluoromethyl)-4,5-dihydro-1,4,6,10,12-pentaazabenzo[4,5]cyclooctatetraeno[1,2,3-cd]inden-3(1H)-one] | 562 nM |
| COc1c(F)ccc2c1CNC(=O)c1c(N)n(-c3c(C)ccc(O)c3C)c3nc(C)nc-2c13 [Compound 30, 2-amino-7-fluoro-1-(3-hydroxy-2,6-dimethylphenyl)-6-methoxy-11-methyl-4,5-dihydro-1,4,10,12-tetraazabenzo[4,5]cyclooctatetraeno[1,2,3-cd]inden-3(1H)-one] | 308 nM |
| Cc1nc2c3c(c(N)n(-c4c(C)ccc(O)c4C)c3n1)C(=O)NCc1nc(OC3CC3)ccc1-2 [Compound 31, 2-amino-7-cyclopropoxy-1-(3-hydroxy-2,6-dimethylphenyl)-11-methyl-4,5-dihydro-1,4,6,10,12-pentaazabenzo[4,5]cyclooctatetraeno[1,2,3-cd]inden-3(1H)-one] | 297 nM |
| Cc1nc2c3c(c(N)n(-c4c(C)ccc(O)c4C)c3n1)C(=O)NCc1nc(CO)ccc1-2 [Compound 32, 2-amino-1-(3-hydroxy-2,6-dimethylphenyl)-7-(hydroxymethyl)-11-methyl-4,5-dihydro-1,4,6,10,12-pentaazabenzo[4,5]cyclooctatetraeno[1,2,3-cd]inden-3(1H)-one] | 798 nM |
| Cc1nc2c3c(c(N)n(-c4c(C)ccc(O)c4C)c3n1)C(=O)Nc1c-2cnn1C1CC1 [Compound 33, 5-amino-8-cyclopropyl-4-(3-hydroxy-2,6-dimethylphenyl)-2-methyl-7,8-dihydro-1,3,4,7,8,9-hexaazabenzo[cd]cyclopenta[f]azulen-6(4H)-one] | 49 nM |
| Cc1nc2c3c(c(N)n(-c4c(C)ccc(O)c4C)c3n1)C(=O)Nc1c-2c(C)nn1C [Compound 34, 2-amino-1-(3-hydroxy-2,6-dimethylphenyl)-5,7,9-trimethyl-4,5-dihydro-1,4,5,6,8,10-hexaazabenzo[cd]cyclopenta[f]azulen-3(1H)-one] | 9.1 nM |
| CCc1nccc2c1CNC(=O)c1c(N)n(-c3c(C)ccc(O)c3C)c3nc(C)nc-2c13 [Compound 35, 2-amino-6-ethyl-1-(3-hydroxy-2,6-dimethylphenyl)-11-methyl-4,5-dihydro-1,4,7,10,12-pentaazabenzo[4,5]cyclooctatetraeno[1,2,3-cd]inden-3(1H)-one] | 40.5 nM |
| Cc1nc2c3c(c(N)n(-c4c(C)ccc(O)c4C)c3n1)C(=O)NCc1c-2ccnc1C [Compound 36, 2-amino-1-(3-hydroxy-2,6-dimethylphenyl)-6,11-dimethyl-4,5-dihydro-1,4,7,10,12-pentaazabenzo[4,5]cyclooctatetraeno[1,2,3-cd]inden-3(1H)-one] | 63.8 nM |
| Cc1nc2c3c(c(N)n(-c4c(C)ccc(O)c4C)c3n1)C(=O)Nc1sncc1-2 [Compound 37, 5-amino-4-(3-hydroxy-2,6-dimethylphenyl)-2-methyl-4,7-dihydro-6H-8-thia-1,3,4,7,9-pentaazabenzo[cd]cyclopenta[f]azulen-6-one] | 33.8 nM |
| Cc1nc2c3c(c(N)n(-c4c(C)ccc(O)c4C)c3n1)C(=O)Nc1scnc1-2 [Compound 38, 5-amino-4-(3-hydroxy-2,6-dimethylphenyl)-2-methyl-4,7-dihydro-6H-8-thia-1,3,4,7,10-pentaazabenzo[cd]cyclopenta[f]azulen-6-one] | 92 nM |
